pEC50, pIC50, pKi: −log10 of the molar value. Like-named read-outs stand apart in the source and are kept apart here.
Assays:
serotonin transporter = molecular target: T1, serotonin transporter (Rattus norvegicus, UniProt P31652); assay: 5-HT transporter affinity: displacement of 3H-paroxetine from male rat cortical membranes; type: binding; conditions: displacement of 3H-paroxetine, male rat cortical membranes; for pKi: read-out: 5-HT Transporter Affinity Ki
T1 construct: displace ^3H-paroxetine from male rat cortical membranes; from tissue; host or cells: male rat cortical membranes

[1] = molecular target: T2, cloned human 5-HT1A receptors (Homo sapiens, UniProt P08908); assay: 35S-GTPγS binding assay, 5-HT1A function; type: biochemical; conditions: for pEC50: agonist potency; for pIC50: antagonist potency, reversal of 8-OH-DPAT, read-out: 5-HT1A Function GTPγS IC50
T2 construct: expressed in transfected cells
T2 sequence (P08908 1-422): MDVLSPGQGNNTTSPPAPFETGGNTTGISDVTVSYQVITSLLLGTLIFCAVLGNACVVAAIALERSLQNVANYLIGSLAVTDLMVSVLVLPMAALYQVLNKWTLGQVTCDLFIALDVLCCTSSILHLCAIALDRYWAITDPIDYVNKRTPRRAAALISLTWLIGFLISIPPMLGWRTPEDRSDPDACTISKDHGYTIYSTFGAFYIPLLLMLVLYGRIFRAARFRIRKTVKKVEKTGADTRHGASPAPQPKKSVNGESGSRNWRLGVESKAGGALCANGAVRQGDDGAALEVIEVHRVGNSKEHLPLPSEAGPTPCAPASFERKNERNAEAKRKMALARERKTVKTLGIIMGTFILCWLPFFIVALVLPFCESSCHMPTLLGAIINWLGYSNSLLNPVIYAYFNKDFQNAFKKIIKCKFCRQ
Description: The agonist or antagonist activity at 5-HT1A receptors was established by using two different assays. […] Agonists produce an increase in binding whereas antagonists produce no increase but rather reverse the effects of the standard agonist 8-OH-DPAT. The test compound's maximum stimulatory effect is represented as the Emax, while its potency is defined by the EC50. The test compound's maximum inhibitory effect is represented as the Imax, while its potency is defined by the IC50. The second assay measured cAMP accumulation upon binding of the ligand to the 5-HT1A receptor. […] The test compound's maximum stimulatory or inhibitory effect is represented as the Emax while its potency is defined by either IC50 for an antagonist or EC50 for an agonist. [^3H]-8-OH-DPAT was used to determine maximum agonist or antagonist response in both functional assays.

5-HT1A receptor [2] = molecular target: T3, 5-HT1A receptor (Homo sapiens, UniProt P08908); assay: cAMP accumulation assay, 5-HT1A function; type: cell-based; conditions: for pEC50: cells marked EC50 (agonist); for Emax: in brackets after EC50 or IC50, read-out: 5-HT1A Function cAMP (Emax); for pIC50: cells marked IC50 (antagonist), read-out: 5-HT1A Function cAMP IC50
T3 sequence (P08908 1-422): T2 sequence (P08908 1-422)

5-HT1A receptor [3] = molecular target: T3, 5-HT1A receptor; assay: 5-HT1A receptor affinity: displacement of [3H] 8-OH-DPAT; type: binding; parameters: expressed in transfected cells; conditions: displacement of [3H] 8-OH-DPAT, CHO cells stably transfected with human 5-HT1A receptors; for pKi: read-out: 5-HT1A Receptor Affinity Ki
[4] = maximum stimulatory effect, in brackets after EC50, read-out: 5-HT1A Function GTPγS (Emax)
[5] = maximum inhibitory effect, in brackets after IC50, read-out: 5-HT1A Function GTPγS (Imax)

T1 sequence (P31652 whole entry): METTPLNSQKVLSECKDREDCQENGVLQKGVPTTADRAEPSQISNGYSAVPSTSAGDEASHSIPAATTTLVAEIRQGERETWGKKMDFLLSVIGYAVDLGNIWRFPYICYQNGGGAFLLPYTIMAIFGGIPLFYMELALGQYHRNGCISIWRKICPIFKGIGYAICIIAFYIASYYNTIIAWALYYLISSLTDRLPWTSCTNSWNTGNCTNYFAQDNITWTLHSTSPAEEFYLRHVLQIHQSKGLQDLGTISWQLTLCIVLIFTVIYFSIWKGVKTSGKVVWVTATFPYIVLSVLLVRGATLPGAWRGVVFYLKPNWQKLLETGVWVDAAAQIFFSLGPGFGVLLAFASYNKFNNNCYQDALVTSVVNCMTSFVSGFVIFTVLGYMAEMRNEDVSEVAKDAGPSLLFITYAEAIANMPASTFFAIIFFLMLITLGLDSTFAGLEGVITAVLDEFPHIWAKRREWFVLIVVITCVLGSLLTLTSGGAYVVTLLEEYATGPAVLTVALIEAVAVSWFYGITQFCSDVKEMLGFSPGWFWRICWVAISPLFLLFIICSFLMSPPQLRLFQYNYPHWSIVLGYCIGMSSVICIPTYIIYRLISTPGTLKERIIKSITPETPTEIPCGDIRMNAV

SMILES	pKi (serotonin transporter)	pEC50 [1]	Emax [1, 4]	pEC50 (5-HT1A receptor [2])	Emax (5-HT1A receptor [2])	pKi (5-HT1A receptor [3])	pIC50 [1]	Emax [1, 5]	pIC50 (5-HT1A receptor [2])	Ki (serotonin transporter; 5-HT Transporter Affinity Ki (nM))	Ki (5-HT1A receptor [3]; 5-HT1A Receptor Affinity Ki (nM))
COc1cccc2c1CC(N(CCCc1c[nH]c3ccc(F)cc13)CC1CC1)CO2 (stereo not shown) [Compound 37, N-(cyclopropylmethyl)-N-[3-(5-fluoro-1H-indol-3-yl)propyl]-N-(5-methoxy-3,4-dihydro-2H-chromen-3-yl)amine]	8.37	6.84	88%	7.85	91%	8.77	–	–	–	–	–
COc1cccc2c1CC(N(CCCc1cn(C)c3ccc(F)cc13)CC1CC1)CO2 (stereo not shown) [Compound 38, N-(cyclopropylmethyl)-N-[3-(5-fluoro-1-methyl-1H-indol-3-yl)propyl]-N-(5-methoxy-3,4-dihydro-2H-chromen-3-yl)amine]	7.54	7.59	90%	8.05	97.5%	9.82	–	–	–	–	–
COc1cccc2c1CC(N(CCCc1c[nH]c3ccc(F)cc13)C1CCCC1)CO2 (stereo not shown) [Compound 39, N-cyclopentyl-N-[3-(5-fluoro-1H-indol-3-yl)propyl]-N-(5-methoxy-3,4-dihydro-2H-chromen-3-yl)amine]	7.16	5.23	100%	6.97	70.5%	7.44	–	–	–	–	–
COc1cccc2c1CC(N(CCCc1c[nH]c3ccc(F)cc13)C(C)C)CO2 (stereo not shown) [Compound 40, N-[3-(5-fluoro-1H-indol-3-yl)propyl]-N-isopropyl-N-(5-methoxy-3,4-dihydro-2H-chromen-3-yl)amine]	8.42	–	–	–	0%	7.09	5.42	46%	–	–	–
COc1cccc2c1CC(N(CCCc1c[nH]c3ccc(F)cc13)C1CC1)CO2 (stereo not shown) [Compound 41, N-cyclopropyl-N-[3-(5-fluoro-1H-indol-3-yl)propyl]-N-(5-methoxy-3,4-dihydro-2H-chromen-3-yl)amine]	6.83	5.46	84%	6.79	78.5%	7.24	–	–	–	–	–
COc1cccc2c1CC(N(CCCc1c[nH]c3ccc(F)cc13)CC1CCC1)CO2 (stereo not shown) [Compound 42, N-(cyclobutylmethyl)-N-[3-(5-fluoro-1H-indol-3-yl)propyl]-N-(5-methoxy-3,4-dihydro-2H-chromen-3-yl)amine]	7.27	6.12	84%	6.81	72.5%	7.30	–	–	–	–	–
COc1cccc2c1CC(N(CCCc1c[nH]c3ccccc13)CC1CC1)CO2 (stereo not shown) [Compound 43, N-(cyclopropylmethyl)-N-[3-(1H-indol-3-yl)propyl]-N-(5-methoxy-3,4-dihydro-2H-chromen-3-yl)amine]	7.39	7.29	100%	7.97	91.5%	8.99	–	–	–	–	–
COc1cccc2c1CC(N(CCCc1c[nH]c3ccccc13)C1CCC1)CO2 (stereo not shown) [Compound 44, N-cyclobutyl-N-[3-(1H-indol-3-yl)propyl]-N-(5-methoxy-3,4-dihydro-2H-chromen-3-yl)amine]	7.33	–	–	7.15	80.5%	7.67	6.62	59%	–	–	–
COc1cccc2c1CC(N(CCCc1c[nH]c3ccc(C#N)cc13)CC1CC1)CO2 (stereo not shown) [Compound 45, 3-{3-[(cyclopropylmethyl)(5-methoxy-3,4-dihydro-2H-chromen-3-yl)amino]propyl}-1H-indole-5-carbonitrile]	8.28	7.25	72%	7.11	89.5%	8.67	–	–	–	–	–
COc1cccc2c1CC(N(CCCc1c[nH]c3ccc(C#N)cc13)C1CCC1)CO2 (stereo not shown) [Compound 46, 3-{3-[cyclobutyl(5-methoxy-3,4-dihydro-2H-chromen-3-yl)amino]propyl}-1H-indole-5-carbonitrile]	8.12	6.97	36%	–	0%	7.84	6.66	81%	6.05	–	–
CCCN(CCCc1c[nH]c2ccc(F)cc12)C1CCc2cccc(OC)c2C1 (stereo not shown) [Compound 47, N-[3-(5-fluoro-1H-indol-3-yl)propyl]-N-(8-methoxy-1,2,3,4-tetrahydronaphthalen-2-yl)-N-propylamine]	8.67	7.98	100%	8.46	91.5%	8.39	–	–	–	–	–
CCCN(CCCc1c[nH]c2ccc(F)cc12)[C@H]1CCc2cccc(OC)c2C1 [Compound 47a, (−)-N-[3-(5-fluoro-1H-indol-3-yl)propyl]-8-methoxy-N-propyl-1,2,3,4-tetrahydronaphthalen-2-amine]	9.08	8.25	80.5%	8.12	99%	8.81	–	–	–	–	–
CCCN(CCCc1c[nH]c2ccc(F)cc12)[C@@H]1CCc2cccc(OC)c2C1 [Compound 47b, (2R)-N-[3-(5-fluoro-1H-indol-3-yl)propyl]-8-methoxy-N-propyl-1,2,3,4-tetrahydronaphthalen-2-amine]	8.96	7.71	87%	8.81	100%	9.47	–	–	–	–	–
CCCN(CCc1c[nH]c2ccc(F)cc12)C1CCc2cccc(OC)c2C1 (stereo not shown) [Compound 48, N-[2-(5-fluoro-1H-indol-3-yl)ethyl]-N-(8-methoxy-1,2,3,4-tetrahydronaphthalen-2-yl)-N-propylamine]	8.19	7.62	93%	7.46	89%	8.22	–	–	–	–	–
CCN(CCc1c[nH]c2ccc(F)cc12)C1CCc2cccc(OC)c2C1 (stereo not shown) [Compound 49, N-ethyl-N-[2-(5-fluoro-1H-indol-3-yl)ethyl]-N-(8-methoxy-1,2,3,4-tetrahydronaphthalen-2-yl)amine]	–	7.82	88%	7.45	93%	–	–	–	–	6.5 nM	7.62 nM
CCCN(CCCc1c[nH]c2ccccc12)C1CCc2cccc(OC)c2C1 (stereo not shown) [Compound 50, N-[3-(1H-indol-3-yl)propyl]-8-methoxy-N-propyl-1,2,3,4-tetrahydronaphthalen-2-amine]	7.85	8.40	90%	8.60	98%	8.67	–	–	–	–	–
CCCN(CCCc1c[nH]c2ccc(F)cc12)C1CCc2c(F)ccc(OC)c2C1 (stereo not shown) [Compound 51, N-[3-(5-fluoro-1H-indol-3-yl)propyl]-N-(5-fluoro-8-methoxy-1,2,3,4-tetrahydronaphthalen-2-yl)-N-propylamine]	8.62	7.82	95%	7.89	83%	7.94	–	–	–	–	–
NC(=O)c1ccc(F)c2c1CC(N(CCCc1c[nH]c3cc(F)ccc13)CC1CC1)CO2 (stereo not shown) [Compound 52a, 3-{(cyclopropylmethyl)[3-(6-fluoro-1H-indol-3-yl)propyl]amino}-8-fluorochromane-5-carboxamide]	6.79	–	–	–	0%	8.63	6.01	90%	6.93	–	–

Source: patent publication US20050032873A1, “3-Amino chroman and 2-amino tetralin derivatives” (Wyeth, priority 2003, published 2005)
